Experimental data taken from US20090062342A1, “AMINES” (Actelion Pharmaceuticals Ltd., priority 2006, published 2009).

Target: T1, recombinant human renin (Homo sapiens, UniProt P00797)
T1 sequence (P00797 67-406): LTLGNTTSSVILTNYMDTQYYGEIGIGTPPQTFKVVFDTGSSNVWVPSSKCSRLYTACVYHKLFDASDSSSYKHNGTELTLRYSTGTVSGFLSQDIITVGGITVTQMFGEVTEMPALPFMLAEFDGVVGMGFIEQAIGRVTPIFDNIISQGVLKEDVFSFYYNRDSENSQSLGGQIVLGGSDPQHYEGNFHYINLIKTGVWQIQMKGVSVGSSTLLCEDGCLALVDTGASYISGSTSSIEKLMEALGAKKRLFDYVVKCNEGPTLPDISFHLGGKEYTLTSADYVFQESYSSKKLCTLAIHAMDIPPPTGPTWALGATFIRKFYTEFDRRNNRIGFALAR
Assay: Primary renin inhibition assay: IC50 in buffer, 384 well MTP (AngI quantified by EIA)
Procedure: Enzyme Immuno Assay (EIA) to Estimate AngI Accumulation and Renin Inhibition
The mixture was incubated overnight at 4° C., then dialyzed against 2 liters of 0.9% NaCl, twice for 4 h at rt, followed by dialysis against 2 liters of PBS 1× overnight at rt. […] The conjugate can be stored in polypropylene tubes in 0.05% sodium azide at 4° C. for at least 12 months.
The AngI (1-10)/BSA coated MTP were washed 3 times with wash buffer (PBS 1×, 0.01% Tween 20) and filled with 75 μl of primary antibody solution (anti-AngI antiserum, pre-diluted 1:10 in horse serum), diluted to a final concentration of 1:100'000 in assay buffer (PBS 1×, 1 mM EDTA, 0.1% BSA, pH 7.4). 5 μl of the renin reaction (or standards in assay buffer) (see below) were added to the primary antibody solution and the plates were incubated overnight at 4° C. […]
In the second step, the accumulated AngI is measured by an immunological assay (enzyme immuno assay, EIA). […]
Test compounds were dissolved and diluted in 100% DMSO and 2.5 μl added to the premix, then incubated at 37° C. for 3 h. At the end of the incubation period, 5 μl of the renin reaction (or standards in assay buffer) were transferred into EIA assays (as described above) and AngI produced by renin was quantified.

IC50: 0.23 nM
Compound: COCCCc1cc(CN(C(=O)[C@H]2CNCC[C@]2(O)c2ccc(OCCOc3c(Cl)cc(C)cc3Cl)nc2)C2CC2)c(Cl)c[n+]1[O-] [Example 7, (3′S,4′R)-6-[2-(2,6-Dichloro-4-methyl-phenoxy)-ethoxy]-4′-hydroxy-1′,2′,3′,4′,5′,6′-hexahydro-[3,4′]bipyridinyl-3′-carboxylic acid [5-chloro-2-(3-methoxy-propyl)-1-oxy-pyridin-4-ylmethyl]-cyclopropyl-amide]
